Like-named read-outs stand apart in the source and are kept apart here. Numbered stars: 1 amine (or outer) side, 2 acyl side, 3 side chain; on linkers, the order of the positions; unused ones are H or OH. Bridge positions count the residues as written; N and C are the ends. Square brackets hold non-standard residues; d marks the D form. Peptide text beside a SMILES is read from it. * marks the point of attachment. TATA = O=C(CC[*:1])N1CN(C(=O)CC[*:2])CN(C(=O)CC[*:3])C1; Biotin = O=C1N[C@H]2[C@H](CS[C@H]2CCCCC(=O)*)N1; Cba = N[C@@H](CC1CCC1)C(=O)O; Sar = CNCC(=O)O
Assays:
[1] = molecular target: T1, CD16a/FCgRIIIa (F158 variant) (Homo sapiens, UniProt P08637); assay: CD16a/FCgRIIIa HTRF assay (IgG competition on HEK293 cells); type: binding
T1 construct: host or cells: HEK293

CD16a (V Variant) = CD16a (V Variant) (Homo sapiens, UniProt P08637, F176V); assay: FcγRIII (CD16a) SPR (Method A and/or Method B), V variant; type: binding
CD16a (F Variant) = CD16a (F Variant) (Homo sapiens, UniProt P08637); assay: FcγRIII (CD16a) SPR (Method A and/or Method B), F variant; type: binding
[2] = molecular target: T2, human NKp46-his tagged protein (Homo sapiens, UniProt O76036); assay: NKp46 Fluorescence Polarization (FP) competition binding assay, tracer BCY15035
T2 construct: His tag; purchased AcroBiosystems

Fc-tagged human NKp46 = molecular target: T3, Fc-tagged human NKp46 (Homo sapiens, UniProt O76036); assay: NKp46 SPR assay (Method 1 and/or Method 2); type: binding; conditions: SPR Method 1 and/or Method 2, Table 3B
T3 construct: purchased ACROBiosystems NC1-H5257
In short: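 Method 1: biotinylated Avi-tag NKp46-Fc on streptavidin chip, peptides to 100-5000 nM top in PBS/0.05% Tween 20, 0.5% DMSO; 1:1 kinetic fit with mass transport. Method 2: NKp46-Fc captured by anti-Fc, PBS-P+ 2% DMSO; steady-state or kinetic 1:1 fit. Both 25° C, 50 μl/min, 60 s association.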

human CD16a V176 variant = assay: IgG competition assay (AlphaScreen), V variant; type: binding; conditions: N-terminally biotinylated CD16a V176 10 nM, mouse IgG2a acceptor beads
[3] = SPR Method A and/or B, Table 6B, read-out: Kd (nM) (V Variant)
[4] = SPR Method A and/or B, Table 6B, read-out: Kd (nM) (F Variant)

`CC(C)C[C@@H]1NC(=O)[C@@H]2CCCN2C(=O)[C@H](Cc2c[nH]cn2)NC(=O)[C@@H]2CSCCC(=O)N3CN(CN(C3)C(=O)CCSC[C@H](NC(=O)[C@H](C)N)C(=O)N3CCC[C@H]3C(=O)N3CCC[C@H]3C(=O)N[C@@H]([C@@H](C)O)C(=O)N[C@@H](C(C)C)C(=O)N[C@@H](Cc3ccc(O)cc3)C(=O)N2)C(=O)CCSC[C@@H](C(=O)N[C@@H](C)C(N)=O)NC(=O)[C@H](CC(=O)O)NC1=O` [BCY11808, A-(SEQ ID NO: 60)-A] showed an IC50 ([1]; HTRF, competition with IgG-d2 on HEK293 cells expressing Terbium-labelled CD16a, 2 h at RT, read-out: IC50) of 9440 nM and a Kd (CD16a (V Variant); [3]) of 3710 nM.

In the case of `CC(C)C[C@@H]1NC(=O)[C@@H]2CCCN2C(=O)[C@H](Cc2c[nH]cn2)NC(=O)[C@@H]2CSCCC(=O)N3CN(CN(C3)C(=O)CCSC[C@H](NC(=O)[C@H](C)N)C(=O)N3CCC[C@H]3C(=O)N3CCC[C@H]3C(=O)N[C@@H](CCC(=O)O)C(=O)N[C@@H](C(C)C)C(=O)N[C@@H](Cc3c[nH]c4ccccc34)C(=O)N2)C(=O)CCSC[C@@H](C(=O)N[C@@H](C)C(N)=O)NC(=O)[C@H](CC(=O)O)NC1=O` [BCY11811, A-(SEQ ID NO: 172)-A] (H-ACPPEVWCHPLDCA-NH2; linker 2-8-13 via TATA), the Kd (CD16a (F Variant); [4]) is reported as 8240 nM and the Kd (CD16a (V Variant); [3]) is reported as 1230 nM.

In the case of `CC(C)C[C@@H]1NC(=O)[C@@H]2CCCN2C(=O)[C@H](Cc2c[nH]cn2)NC(=O)[C@@H]2CSCCC(=O)N3CN(CN(C3)C(=O)CCSC[C@H](NC(=O)[C@H](C)N)C(=O)N3CCC[C@H]3C(=O)N3CCC[C@H]3C(=O)N[C@@H](CCC(N)=O)C(=O)N[C@@H](C(C)C)C(=O)N[C@@H](Cc3ccc(O)cc3)C(=O)N2)C(=O)CCSC[C@@H](C(=O)N[C@@H](C)C(N)=O)NC(=O)[C@H](CC(=O)O)NC1=O` [BCY11812, A-(SEQ ID NO: 173)-A] (H-ACPPQVYCHPLDCA-NH2; linker 2-8-13 via TATA; C-terminus assumed), the Kd (CD16a (F Variant); [4]) is reported as 11800 nM and the Kd (CD16a (V Variant); [3]) is reported as 2400 nM.

With `CC(C)C[C@@H]1NC(=O)[C@@H]2CCCN2C(=O)[C@H](Cc2c[nH]cn2)NC(=O)[C@@H]2CSCCC(=O)N3CN(CN(C3)C(=O)CCSC[C@H](NC(=O)[C@H](C)N)C(=O)N3CCC[C@H]3C(=O)N3CCC[C@H]3C(=O)N[C@@H](CCC(=O)O)C(=O)N[C@@H](C(C)C)C(=O)N[C@@H](Cc3c[nH]c4ccccc34)C(=O)N2)C(=O)CCSC[C@@H](C(=O)N[C@@H](C)C(=O)N(C)CC(=O)N(C)CC(=O)N(C)CC(=O)N(C)CC(=O)N(C)CC(=O)N(C)CC(=O)N[C@@H](CCCCNC(=O)CCCC[C@@H]2SC[C@@H]3NC(=O)N[C@@H]32)C(N)=O)NC(=O)[C@H](CC(=O)O)NC1=O` [BCY12622, A-(SEQ ID NO: 174)-A-[Sar6]-[KBiot]] (H-ACPPEVWCHPLDCA[Sar][Sar][Sar][Sar][Sar][Sar]K(Biotin)-NH2; linker 2-8-13 via TATA; N-terminus assumed) the Kd (CD16a (F Variant); [4]) was 1000 nM and the Kd (CD16a (V Variant); [3]) was 4000 nM.

Molecule `CC(C)C[C@@H]1NC(=O)[C@H](Cc2ccc(O)cc2)NC(=O)[C@H](CC(=O)O)NC(=O)[C@@H]2CCCN2C(=O)[C@H](CC2CCC2)NC(=O)[C@H](Cc2ccc(O)cc2)NC(=O)[C@@H](NC(=O)[C@H](C)N)CSCCC(=O)N2CN3CN(C2)C(=O)CCSC[C@@H](C(=O)N[C@@H](C)C(N)=O)NC(=O)[C@H](Cc2ccc(O)cc2)NC(=O)[C@H](CCC(=O)O)NC(=O)[C@H](CC(=O)O)NC(=O)CNC(=O)[C@H](CSCCC3=O)NC1=O` [BCY15639, A-(SEQ ID NO: 16)-A] (H-ACY[Cba]PDYLCGDEYCA-NH2; linker 2-9-14 via TATA) has a Ki [2] of 17 nM.

For `CC(C)C[C@@H]1NC(=O)[C@H](Cc2ccc(O)cc2)NC(=O)[C@@H](NC(=O)[C@H](C)N)CSCCC(=O)N2CN3CN(C2)C(=O)CCSC[C@@H](C(=O)N[C@@H](C)C(N)=O)NC(=O)[C@H](Cc2ccc(O)cc2)NC(=O)[C@H](CCC(=O)O)NC(=O)[C@H](CC(=O)O)NC(=O)CNC(=O)[C@H](CSCCC3=O)NC(=O)[C@H](CC(C)(C)C)NC(=O)[C@H](Cc2c[nH]c3ccccc23)NC(=O)[C@H](CC(=O)O)NC(=O)[C@@H]2CCCN2C1=O` [BCY15648, A-(SEQ ID NO: 24)-A], the Ki [2] was 1620 nM.

Molecule `CC(C)C[C@@H]1NC(=O)[C@H](Cc2ccc(O)cc2)NC(=O)[C@H](CC(=O)O)NC(=O)[C@@H]2CCCN2C(=O)[C@H](CC(C)C)NC(=O)[C@H](Cc2ccc(O)cc2)NC(=O)[C@@H](NC(=O)[C@H](C)N)CSCCC(=O)N2CN3CN(C2)C(=O)CCSC[C@H](NC1=O)C(=O)N[C@H](C)C(=O)N[C@@H](CC(=O)O)C(=O)N[C@@H](CCC(=O)O)C(=O)N[C@@H](Cc1ccc(O)cc1)C(=O)N[C@H](C(=O)N[C@@H](C)C(N)=O)CSCCC3=O` [BCY15650, A-(SEQ ID NO: 26)-A] (H-ACYLPDYLC[dA]DEYCA-NH2; linker 2-9-14 via TATA; N-terminus assumed) has a Ki [2] of 16 nM and a Kd (Fc-tagged human NKp46) of 10 ± 3 nM.

In the case of `C#CCCC(=O)NCCCC[C@H](NC(=O)[C@H](C)NC(=O)[C@@H]1CSCCC(=O)N2CN3CN(C2)C(=O)CCSC[C@H](NC(=O)[C@H](C)N)C(=O)N2CCC[C@H]2C(=O)N2CCC[C@H]2C(=O)N[C@@H]([C@@H](C)O)C(=O)N[C@@H](C(C)C)C(=O)N[C@@H](Cc2ccc(O)cc2)C(=O)N[C@@H](CSCCC3=O)C(=O)N[C@@H](Cc2c[nH]cn2)C(=O)N2CCC[C@H]2C(=O)N[C@@H](CC(C)C)C(=O)N[C@@H](CC(=O)O)C(=O)N1)C(N)=O` [BCY15685, A-(SEQ ID NO: 60)-A-[K(PYA)]], the IC50 (human CD16a V176 variant) is reported as 3480 nM.

`CC(=O)N[C@H]1CSCCC(=O)N2CN3CN(C2)C(=O)CCSC[C@H](NC(=O)[C@H](CC(C)C)NC(=O)[C@H](Cc2ccc(O)cc2)NC(=O)[C@H](CC(=O)O)NC(=O)[C@@H]2CCCN2C(=O)[C@H](CC2CCC2)NC(=O)[C@H](Cc2ccc(O)cc2)NC1=O)C(=O)N[C@H](C)C(=O)N[C@@H](CC(=O)O)C(=O)N[C@@H](CCC(=O)O)C(=O)N[C@@H](Cc1ccc(O)cc1)C(=O)N[C@H](C(N)=O)CSCCC3=O` [BCY16133, Ac-(SEQ ID NO: 40)] (Ac-CY[Cba]PDYLC[dA]DEYC-NH2; linker 1-8-13 via TATA; C-terminus assumed) was tested, and the Ki [2] was 10 nM.

With `CC(C)C[C@@H]1NC(=O)CNC(=O)[C@H](C(C)C)NC(=O)[C@@H](NC(=O)[C@H](C)N)CSCc2nc3nc(n2)CSC[C@H](NC(=O)[C@@H]2CCCN2C(=O)CNC(=O)[C@H](CC(C)C)NC(=O)[C@H](CCC(=O)O)NC(=O)[C@H](CCC(=O)O)NC1=O)C(=O)N[C@@H](CO)C(=O)N[C@@H](CC(=O)O)C(=O)N[C@@H](CC(C)C)C(=O)N[C@H](C(=O)N[C@@H](C)C(N)=O)CSC3` [BCY16493, A-(SEQ ID NO: 62)-A] the IC50 [1] was 4790 nM and the Kd (CD16a (V Variant)) was 7330 nM.

Molecule `CC(C)C[C@@H]1NC(=O)CNC(=O)[C@H](C(C)C)NC(=O)[C@@H](N)CSCc2nc3nc(n2)CSC[C@H](NC(=O)[C@@H]2CCCN2C(=O)CNC(=O)[C@H](CC(C)C)NC(=O)[C@H](CCC(=O)O)NC(=O)[C@H](CCC(=O)O)NC1=O)C(=O)N[C@@H](CO)C(=O)N[C@@H](CC(=O)O)C(=O)N[C@@H](CC(C)C)C(=O)N[C@H](C(N)=O)CSC3` [BCY16494, (SEQ ID NO: 62)] has a Kd (CD16a (F Variant)) of 2870 nM and a Kd (CD16a (V Variant)) of 2820 nM.

With `C[C@H](N)C(=O)N[C@H]1CSCc2nc3nc(n2)CSC[C@H](NC(=O)[C@@H]2CCCN2C(=O)[C@H](CCC(=O)O)NC(=O)[C@H](CO)NC(=O)[C@@H]2C[C@@H](O)CN2C(=O)[C@H](Cc2c[nH]cn2)NC(=O)[C@H](Cc2c[nH]c4ccccc24)NC(=O)[C@H](CCCNC(=N)N)NC1=O)C(=O)NCC(=O)N[C@@H](C)C(=O)N[C@@H](Cc1c[nH]c2ccccc12)C(=O)N[C@H](C(=O)N[C@@H](C)C(N)=O)CSC3` [BCY20383, A-(SEQ ID NO: 228)-A] the IC50 [1] was 1110 nM.
